Measurements taken from the NIST ThermoML archive (doi:10.1016/j.jct.2019.03.039).

Assay: mn = molality of the nth substance listed, in mol/kg
Conditions: 101.3 kPa, Liquid; for viscosity: Capillary tube (Ostwald / Ubbelohde) method; for speed of sound: Frequency=4 MHz, Linear variable-path acoustic interferometer; for mass density: Vibrating tube method

N=C(N)NCCC[C@H](N)C(=O)O [L-arginine] + O
Conditions	mass density [kg/m3]	speed of sound [m/s]	viscosity [mPa·s]
293.15 K, m1 = 0.05014	1000.72	1487.6	1.032
293.15 K, m1 = 0.1001	1003.17	1492.7	1.054
293.15 K, m1 = 0.15	1005.58	1497.9	1.08
293.15 K, m1 = 0.2	1007.92	1503.2	1.107
293.15 K, m1 = 0.25	1010.21	1508.6	1.13
293.15 K, m1 = 0.3001	1012.47	1514.1	1.155
298.15 K, m1 = 0.05014	999.556	1502.4	0.9151
298.15 K, m1 = 0.1001	1001.99	1507.5	0.9358
298.15 K, m1 = 0.15	1004.36	1512.7	0.9586
298.15 K, m1 = 0.2	1006.68	1518	0.9766
298.15 K, m1 = 0.25	1008.94	1523.4	1
298.15 K, m1 = 0.3001	1011.17	1528.9	1.021
303.15 K, m1 = 0.05014	998.142	1514.5	0.8179
303.15 K, m1 = 0.1001	1000.55	1519.6	0.8355
303.15 K, m1 = 0.15	1002.9	1524.8	0.8555
303.15 K, m1 = 0.2	1005.19	1530.1	0.8718
303.15 K, m1 = 0.25	1007.45	1535.5	0.8909
303.15 K, m1 = 0.3001	1009.67	1541	0.9084
308.15 K, m1 = 0.05014	996.503	1524.3	0.7362
308.15 K, m1 = 0.1001	998.883	1529.4	0.7512
308.15 K, m1 = 0.15	1001.21	1534.6	0.7694
308.15 K, m1 = 0.2	1003.48	1539.9	0.7828
308.15 K, m1 = 0.25	1005.7	1545.3	0.7987
308.15 K, m1 = 0.3001	1007.89	1550.8	0.8144
313.15 K, m1 = 0.05014	994.671	1533.7	0.6673
313.15 K, m1 = 0.1001	997.036	1538.8	0.6808
313.15 K, m1 = 0.15	999.344	1544	0.6951
313.15 K, m1 = 0.2	1001.6	1549.3	0.7067
313.15 K, m1 = 0.25	1003.8	1554.7	0.7224
313.15 K, m1 = 0.3001	1005.97	1560.3	0.7345

N[C@@H](CO)C(=O)O [L-serine] + O
Conditions	mass density [kg/m3]	speed of sound [m/s]	viscosity [mPa·s]
293.15 K, m1 = 0.05002	1000.49	1485.7	1.011
293.15 K, m1 = 0.1001	1002.74	1488.9	1.022
293.15 K, m1 = 0.15	1004.96	1492.2	1.034
293.15 K, m1 = 0.2003	1007.18	1495.6	1.046
293.15 K, m1 = 0.2502	1009.36	1499.1	1.058
293.15 K, m1 = 0.2999	1011.52	1502.7	1.069
298.15 K, m1 = 0.05002	999.314	1500.4	0.8972
298.15 K, m1 = 0.1001	1001.55	1503.5	0.907
298.15 K, m1 = 0.15	1003.74	1506.7	0.9165
298.15 K, m1 = 0.2003	1005.94	1510	0.9277
298.15 K, m1 = 0.2502	1008.1	1513.4	0.9379
298.15 K, m1 = 0.2999	1010.23	1516.9	0.9477
303.15 K, m1 = 0.05002	997.896	1512.4	0.8025
303.15 K, m1 = 0.1001	1000.1	1515.4	0.8115
303.15 K, m1 = 0.15	1002.27	1518.5	0.8204
303.15 K, m1 = 0.2003	1004.44	1521.7	0.8295
303.15 K, m1 = 0.2502	1006.56	1525	0.8377
303.15 K, m1 = 0.2999	1008.66	1528.4	0.8466
308.15 K, m1 = 0.05002	996.254	1522.1	0.723
308.15 K, m1 = 0.1001	998.433	1525	0.7313
308.15 K, m1 = 0.15	1000.58	1528	0.7386
308.15 K, m1 = 0.2003	1002.72	1531.1	0.7463
308.15 K, m1 = 0.2502	1004.83	1534.3	0.7535
308.15 K, m1 = 0.2999	1006.92	1537.6	0.7611
313.15 K, m1 = 0.05002	994.421	1531.4	0.6558
313.15 K, m1 = 0.1001	996.578	1534.2	0.6627
313.15 K, m1 = 0.15	998.702	1537.1	0.6688
313.15 K, m1 = 0.2003	1000.82	1540.2	0.6756
313.15 K, m1 = 0.2502	1002.91	1543.3	0.682
313.15 K, m1 = 0.2999	1004.97	1546.6	0.6881

Cc1ncc(C[n+]2csc(CCO)c2C)c(N)n1.Cl.[Cl-] [thiamine hydrochloride] + O
Conditions	mass density [kg/m3]	speed of sound [m/s]	viscosity [mPa·s]
293.15 K, m1 = 0.0497	1003.19	1490.4	1.048
293.15 K, m1 = 0.0502	1003.19	–	1.048
293.15 K, m1 = 0.0503	–	1490.4	–
293.15 K, m1 = 0.1003	1008.06	1498.5	1.071
293.15 K, m1 = 0.1008	1008.06	1498.5	1.071
293.15 K, m1 = 0.1498	1013.01	1507.2	1.101
293.15 K, m1 = 0.1505	1013.01	1507.2	1.101
298.15 K, m1 = 0.0497	1001.99	1504.1	0.9193
298.15 K, m1 = 0.0502	1001.99	–	0.9193
298.15 K, m1 = 0.0503	–	1504.1	–
298.15 K, m1 = 0.1003	1006.87	1512.6	0.954
298.15 K, m1 = 0.1008	1006.87	1512.6	0.954
298.15 K, m1 = 0.1498	1011.77	1520.8	0.9913
298.15 K, m1 = 0.1505	1011.77	1520.8	0.9913
303.15 K, m1 = 0.0497	1000.56	1516.7	0.8251
303.15 K, m1 = 0.0502	1000.56	–	0.8251
303.15 K, m1 = 0.0503	–	1516.7	–
303.15 K, m1 = 0.1003	1005.44	1524.1	0.8569
303.15 K, m1 = 0.1008	1005.44	1524.1	0.8569
303.15 K, m1 = 0.1498	1010.29	1532.7	0.8892
303.15 K, m1 = 0.1505	1010.29	1532.7	0.8892
308.15 K, m1 = 0.0497	998.93	1526.9	0.7565
308.15 K, m1 = 0.0502	998.93	–	0.7565
308.15 K, m1 = 0.0503	–	1526.9	–
308.15 K, m1 = 0.1003	1003.79	1533.7	0.7753
308.15 K, m1 = 0.1008	1003.79	1533.7	0.7753
308.15 K, m1 = 0.1498	1008.62	1542.5	0.8015
308.15 K, m1 = 0.1505	1008.62	1542.5	0.8015
313.15 K, m1 = 0.0497	997.193	1535.5	0.6772
313.15 K, m1 = 0.0502	997.193	–	0.6772
313.15 K, m1 = 0.0503	–	1535.5	–
313.15 K, m1 = 0.1003	1002	1542.8	0.7057
313.15 K, m1 = 0.1008	1002	1542.8	0.7057
313.15 K, m1 = 0.1498	1006.76	1551.1	0.7388
313.15 K, m1 = 0.1505	1006.76	1551.1	0.7388

O [water] + Cc1ncc(C[n+]2csc(CCO)c2C)c(N)n1.Cl.[Cl-]
m2 = 0
Conditions	mass density [kg/m3]	speed of sound [m/s]	viscosity [mPa·s]
293.15 K	–	–	1.002
298.15 K	–	–	0.8906
303.15 K	–	–	0.7975
308.15 K	994.059	1519.3	0.7193
313.15 K	–	1528.7	0.6531

O [water] + N=C(N)NCCC[C@H](N)C(=O)O
m2 = 0
Conditions	mass density [kg/m3]	speed of sound [m/s]	viscosity [mPa·s]
293.15 K	–	–	1.002
298.15 K	–	–	0.8906
303.15 K	–	–	0.7975
308.15 K	994.059	1519.3	0.7193
313.15 K	–	1528.7	0.6531

O [water] + N[C@@H](CO)C(=O)O
m2 = 0
Conditions	mass density [kg/m3]	speed of sound [m/s]	viscosity [mPa·s]
293.15 K	–	–	1.002
298.15 K	–	–	0.8906
303.15 K	–	–	0.7975
308.15 K	994.059	1519.3	0.7193
313.15 K	–	1528.7	0.6531
